{"source": "patent US20200237909A1", "about": "“METHODS OF TREATING OR PREVENTING BREAST CANCER METASTASES USING ANTIBODIES TO JAGGED1 AND CHEMOTHERAPEUTIC AGENTS” (The Trustees of Princeton University, priority 2017, published 2020)", "key": {"[1]": {"conditions": "mouse, in vivo", "method": "(§1) To analyze liver toxicity, the activity of alanine aminotransferase (ALT) and aspartate aminotransferase (AST) in the sera of these mice after the respective drug treatments was measured.\n(§2) For IgG or 15D11 antibody treatment, mice were i.p. injected at the dosing of 10 mg/kg, twice a week."}, "[2]": {"test_system": "Notch downstream genes (human HES2, HEY1, HEY2)", "assay": "Notch downstream gene expression in tumor cells co-cultured with MSC after chemotherapy", "assay_type": "cell-based", "conditions": "co-culture tumor cells after chemotherapy"}, "MSCs": {"test_system": "MSCs", "assay": "Stress inducers/inhibitors: Jagged1 expression and ROS production in MSCs", "assay_type": "cell-based, mouse", "description": "Next, which signaling pathway is responsible for Jagged1 induction after chemotherapy in osteoblast lineage cells was investigated. Chemotherapy generates many stress responses in cells, including endoplasmic reticulum stress (ER stress), and oxidative stress. Some of the stress conditions have been associated with the regulation of Jagged1 expression (Paul et al., 2014). Several treatments were used to mimic or inhibit these stress responses and then Jagged1 mRNA and protein levels were analyzed within the cells.\n293T, H29-Clone #7, MC3T3-E1 Clone #4(denoted as MC3T3 for abbreviation thereafter), MCF7TR, mouse mesenchymal stromal cell (MSC, isolated from BALB/c), 4T1.2, SCP28, SCP28-Vector and -Jagged1 cells, SCP28, RAW264.7, and SUM1315-M1B1 cells were cultured according to American Type Culture Collection instructions and the inventors' previous studies (Ell et al., 2013; Ren et al., 2008; Sethi et al., 2011; Zheng et al., 2014). MSC cells were derived previously and were cultured in DMEM supplemented with 10% FBS, 30 ng/ml bFGF, 100 U/ml penicillin, and 100 μg/ml streptomycin (Ren et al., 2008). All plasmids were transfected into different cell lines using Lipofectamine 2000 following the manufacturer's manual (Life Technologies, CA, USA). To generate stable cell lines, a pLEX-MCS based lentivirus vector or a pMSCV-hygro based retrovirus vector was used in our study. Lentiviruses were packaged in HEK293T cells while retroviruses were packaged by using H29 cell line. Conditional media from these packaging cells containing viruses were collected 2 days and 3 days after transfection. Recipient cell lines were exposed to conditional media containing viruses supplemented with 2 μg/mL Polybrene for 48 h. Infected cells were selected with puromycin or hygromycin to generate stable expressing cell lines. 293T and H29clone #7 are cell lines from female humans. All other cancer cell lines are breast cancer cell lines from either female human or mouse."}, "[3]": {"assay": "In vivo toxicity of 15D11 (body weight, GI histology, ALT/AST, CBC, T cells)", "method": "as §1, §2"}}, "note": "Like-named read-outs stand apart in the source and are kept apart here.", "data": [{"compound": "ClC(Cl)(Cl)Cl", "note": "[CCl4]", "values": [{"measurement": "liver toxicity: ALT and AST activity in sera", "setting": "[1]", "result": "dramatic increase"}]}, {"compound": "CC(=O)O[C@@]12CO[C@@H]1C[C@H](O)[C@@]1(C)C(=O)[C@H](O)C3=C(C)[C@@H](OC(=O)[C@H](O)[C@@H](NC(=O)OC(C)(C)C)c4ccccc4)C[C@@](O)([C@@H](OC(=O)c4ccccc4)[C@H]21)C3(C)C", "note": "[docetaxel]", "values": [{"measurement": "Notch downstream genes HES2, HEY1, HEY2", "setting": "[2]", "result": "significantly upregulated"}, {"measurement": "ROS production in MSCs", "setting": "MSCs", "result": "induced ROS production"}]}, {"compound": "OO", "note": "[H2O2]", "values": [{"measurement": "Jagged1 expression in MSCs", "setting": "MSCs", "result": "induced a strong Jagged1 expression"}]}, {"compound": "C[C@H]1CCC/C=C/[C@@H]2C[C@H](O)C[C@H]2[C@H](O)/C=C/C(=O)O1", "note": "[Brefeldin A (BFA), Brefeldin A]", "values": [{"measurement": "Jagged1 expression in MSCs", "setting": "MSCs", "result": "did not induce Jagged1 expression"}]}, {"compound": "O=S1(=O)N[C@@]2(CN1CC(F)(F)F)[C@@H]1CC[C@H]2Cc2ccc(/C=C/CN3CCC(C(F)(F)F)CC3)cc2C1", "note": "[GSI]", "values": [{"measurement": "general toxicity based on body weight measurement", "setting": "[3]; 15D11 10 mg/kg, twice a week", "result": "significant weight loss"}, {"measurement": "GI track toxicity (H&E and Alcian blue staining)", "setting": "[3]; mouse, in vivo", "result": "significant goblet cell metaplasia"}, {"measurement": "liver toxicity: ALT and AST activity in sera", "setting": "[3]; mouse, in vivo", "result": "no change"}]}, {"compound": "CC(=O)N[C@@H](CS)C(=O)O", "note": "[N-Acetyl Cysteine]", "values": [{"measurement": "block of cisplatin and docetaxel induced ROS production", "setting": "MSCs; MSCs", "result": "completely blocked"}, {"measurement": "block of cisplatin-induced Jagged1 expression", "setting": "MSCs; MSCs", "result": "completely blocked"}]}, {"compound": "Tunicamycin", "values": [{"measurement": "Jagged1 expression in MSCs", "setting": "MSCs", "result": "did not induce Jagged1 expression"}]}]}
